What is called MIC is the lowest concentration that inhibits growth of the organism. A higher MIC goes with weaker potency.

Structures are written as SMILES. ≈ marks a conversion by molar mass, not a printed value.

The subject of test [1] is Staphylococcus aureus. The experiment in a line: Minimum inhibitory concentration required for antibacterial activity against methicillin-resistant Staphylococcus aureus 3004. The test is classed as functional.
In a further test the test system is Pseudomonas aeruginosa. The experiment in a line: Minimum inhibitory concentration required for antibacterial activity against Pseudomonas aeruginosa 26. The test is classed as functional.
Test [2] relates to Staphylococcus aureus. The experiment in a line: Minimum inhibitory concentration required for antibacterial activity against Staphylococcus aureus 209P JC-1. The test is classed as functional.
The target of test [3] is T1, Dipeptidase 1 (Homo sapiens) (UniProt P16444).
T1 sequence (whole entry): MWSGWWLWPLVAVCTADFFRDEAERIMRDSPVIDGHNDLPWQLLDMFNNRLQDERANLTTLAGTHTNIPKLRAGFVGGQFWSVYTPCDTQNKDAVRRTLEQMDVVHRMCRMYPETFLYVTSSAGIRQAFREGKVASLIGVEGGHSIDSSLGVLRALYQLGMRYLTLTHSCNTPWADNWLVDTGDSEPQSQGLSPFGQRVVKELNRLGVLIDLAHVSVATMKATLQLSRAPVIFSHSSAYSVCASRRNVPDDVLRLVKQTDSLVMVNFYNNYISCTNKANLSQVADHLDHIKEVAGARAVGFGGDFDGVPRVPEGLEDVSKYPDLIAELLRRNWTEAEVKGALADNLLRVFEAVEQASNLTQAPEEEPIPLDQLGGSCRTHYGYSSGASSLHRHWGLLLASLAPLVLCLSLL
The experiment in a line: In vitro renal dehydropeptidase I (DHP-I) stability relative to meropenem.

For a further test, the system named is Escherichia coli. The experiment in a line: Minimum inhibitory concentration required for antibacterial activity against Escherichia coli NIHJ JC-2. The test is classed as functional.
The subject of a further test is Proteus vulgaris. The experiment in a line: Minimum inhibitory concentration required for antibacterial activity against Proteus vulgaris IAM 1025. The test is classed as functional.
The subject of a further test is Mus musculus. The experiment in a line: […] percent urinary recovery in mice after subcutaneous administration at a dose of 20 mg/Kg. The test is classed as functional, organism-based. The following applies: Urine.

As to `C[C@@H](O)[C@H]1C(=O)N2C(C(=O)O)=C(S[C@@H]3CN[C@H](C(=O)N(C)C)C3)[C@H](C)[C@H]12` [MEROPENEM], the MIC against Staphylococcus aureus [1] was 25 µg/mL (≈ 65.2 µM); in the test on Pseudomonas aeruginosa it was 0.2 µg/mL (≈ 0.522 µM); against Staphylococcus aureus [2], 0.1 µg/mL (≈ 0.261 µM); in the test on Escherichia coli, under 0.025 µg/mL; against Proteus vulgaris, 0.1 µg/mL (≈ 0.261 µM). In test [3], this molecule registered a Stability of 100%. In addition, the Recovery in the test with Mus musculus came out at 25%.
Consider `C[C@@H](O)[C@H]1C(=O)N2C(C(=O)[O-])=C(SC3Cn4cnc[n+]4C3)[C@H](C)[C@H]12` (stereo partly specified) [BIAPENEM], for which the MIC was found to be 25 µg/mL (≈ 71.3 µM) with Staphylococcus aureus [1]; 0.2 µg/mL (≈ 0.571 µM) in the test with Pseudomonas aeruginosa; 0.1 µg/mL (≈ 0.285 µM) against Staphylococcus aureus [2]; 0.39 µg/mL (≈ 1.11 µM) against Escherichia coli; 3.13 µg/mL (≈ 8.93 µM) with Proteus vulgaris. For the same molecule, the Stability in test [3] is 15.4%. In the test on Mus musculus, this molecule yielded a Recovery of 70.7%.
For `C[C@@H](O)[C@H]1C(=O)N2C(C(=O)O)=C(S[C@@H]3CN[C@H](Cc4cc[n+](CCO)n4C)C3)[C@H](C)[C@H]12.[Cl-]`, the MIC against Staphylococcus aureus [1] is 6.25 µg/mL; against Pseudomonas aeruginosa, 0.2 µg/mL; against Staphylococcus aureus [2], 0.05 µg/mL; in the test on Escherichia coli, 0.2 µg/mL; with Proteus vulgaris it was 1.56 µg/mL. Moreover, in test [3], the Stability came to 26%. In the test with Mus musculus, this molecule had a Recovery of 68.9%.
